Assay [1] has as its system HFD-fed C57BL/6J mice. The assay can be described thus: In vivo efficacy test in high-fat diet fed mice. Also on record: species or system mouse. The settings on record: vs vehicle. The protocol: All animal study protocols were approved by the Institutional Animal Care and Use Committee at the Korea Advanced Institute of Science and Technology. Male C57BL/6J mice were purchased from SLC (Shizuoka, Japan) and acclimatized for a week. Mice were housed in a humidity and temperature-controlled environment under a 12 h light-dark cycle with ad libitum access to water and food. After acclimatization, male mice were fed a high-fat diet (HFD, 60% fat calories, Research diet; New Brunswick, NJ) and received daily treatment with TPH1 inhibitors. […] Compound 18i was dissolved in 5% dimethyl sulfoxide (DMSO) (Sigma, St. Louis, MO, USA) and 25% β-cyclodextrin (Sigma, St. Louis, MO, USA). Vehicle or compound 18i (100 mg kg^−1) was injected intraperitoneally in mice for 10 days after two weeks of HFD feeding. Both compounds 19 and 21 were prepared in 10% DMSO and 10% Kolliphor EL (Sigma, St. Louis, MO, USA). Vehicle and 100 mg kg^−1 of compound 19 or compound 21 were administered daily by intraperitoneal injection or oral feeding, respectively, concomitant to the initiation of HFD feeding. For analyzing blood glucose concentration, glucose in blood collected from the tail vein was measured after fasting mice for 16 h using a Gluco Dr. Top glucometer (Allemedicus, Anyang, Korea). Body weight was measured daily and mice were sacrificed for harvesting adipose tissue and liver.
Tissue samples were fixed in 10% formalin, embedded in paraffin, and cut into 5 μm thick sections, followed by deparaffinization and rehydration for H&E staining and UCP1 immunohistochemistry. After heat-induced antigen retrieval with a citrate buffer (pH 6.0) for 10 min at 95°C, tissue sections were incubated with BLOXALL Blocking solution (Vector Laboratories, Burlingame, CA, USA) to block endogenous peroxidase, followed by incubation with 2% normal goat serum in phosphate-buffered saline (PBS) for 30 min at room temperature to block nonspecific binding. Sections were incubated overnight with the anti-UCP1 primary antibody diluted 1:200 in 2% normal goat serum in PBS (Abcam, Cambridge, UK) at 4 °C, followed by 30 min incubation with biotinylated anti-rabbit IgG secondary antibody diluted 1:400 in PBS for 30 min at room temperature. After incubation with Vectastain […] reagent (Vector Laboratories) for 30 min, peroxidase activity was visualized with 3,3′-diaminobenzidine substrates (Vector Laboratories). For measuring average adipocyte size, we analyzed three random fields of H&E stained micrographs per adipose tissue sample from two representative mice of each group using AdipoCount software.
Fresh liver tissues were flash frozen in O.C.T. compound (Sakura Finetek, Torrance, CA, USA) and 10 μm cryostat sections were collected on glass slides. Sections were allowed to air-dry for 1 h, rinsed with PBS for 5 min, and washed with distilled water for 5 min. After washing, sections were placed in 30% isopropanol for 5 min, 60% isopropanol for 5 min twice, and then stained in Oil Red O solution (0.5% Oil red O (Sigma, St. Louis, MO, USA) dissolved in 60% isopropanol) for 15 min. The stained sections were rinsed twice with distilled water, mounted, coverslipped, and documented using bright field microscopy.

Assay [2] deals with T1, TPH1 (Homo sapiens, UniProt P17752).
T1 construct: purchased BPS Bioscience
T1 sequence (P17752 1-444): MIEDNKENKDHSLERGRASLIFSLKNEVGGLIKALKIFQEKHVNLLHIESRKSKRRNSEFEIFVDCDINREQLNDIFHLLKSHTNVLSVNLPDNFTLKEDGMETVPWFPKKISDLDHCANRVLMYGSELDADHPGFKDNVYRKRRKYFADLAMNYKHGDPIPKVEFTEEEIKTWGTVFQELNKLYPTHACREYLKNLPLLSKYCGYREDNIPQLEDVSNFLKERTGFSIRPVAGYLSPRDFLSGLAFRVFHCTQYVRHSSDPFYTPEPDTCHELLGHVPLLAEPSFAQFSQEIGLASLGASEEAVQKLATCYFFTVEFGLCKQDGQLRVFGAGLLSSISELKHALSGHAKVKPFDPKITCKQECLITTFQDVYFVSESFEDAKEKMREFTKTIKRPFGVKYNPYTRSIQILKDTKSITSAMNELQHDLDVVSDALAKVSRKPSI
Nature of the assay: TPH1 enzyme inhibition, in vitro screening (BPS Bioscience kit, fluorescence). The settings on record: for TPH1 Inhibition (% Inhibition at 1 µM) / inhibition at 1 µM: 1 µM compound; for inhibition at 10 µM: 10 µM compound (stated in the cell). The class given is biochemical. The protocol:
Consequently, the core structure of thienopyrimidine tyrosine (derivative 6) was selected as the starting point for the synthesis, evaluating the structure-activity relationships (SAR), and optimization of TPH1 inhibitors. […]
In vitro screening was performed as described previously [PMID: 33417443]. Briefly, TPH1 enzyme activity was measured with a commercially available kit (BPS Bioscience). Compounds were dissolved in DMSO (Sigma). Then, 10 μL of the compound was dispensed into a 96-well microplate, and 40 μL of the TPH1 enzyme solution (320 ng enzyme/reaction) was added. Then, 50 μL of the TPH1 reaction solution was added, and the microplate was sealed with aluminum foil. The microplate was immediately cooled to 4 °C, gently shaken, and incubated for 4 h. After a defined time, 10 μL of the TPH1 quench solution was added. Then, the fluorescence was measured with a Flexstation3 microplate reader at 300 nm for excitation and 360 nm for emission. All experiments were performed in triplicate.

The subject of assay [3] is high-fat diet (HFD) fed mice. Also noted: method as in PMID 25864946, PMID 25485911. The settings on record: cited from earlier work.

For orientation: inhibition means the share of the control response that was lost under treatment. In general, IC50 refers to the concentration at which inhibition is half-maximal. Low readings indicate inhibition by little substance, high ones a need for much substance.

Consider `CCOC(=O)[C@@H](N)Cc1ccc(-c2csc3c(O[C@H](c4ccc(Cl)cc4-n4ccc(C)n4)C(F)(F)F)ncnc23)cc1` [Compound 21, ethyl (S)-2-amino-3-(4-(4-((R)-1-(4-chloro-2-(3-methyl-1H-pyrazol-1-yl)phenyl)-2,2,2-trifluoroethoxy)thieno[3,2-d]pyrimidin-7-yl)phenyl)propanoate hippurate], for which, in assay [1] (100 mg/kg oral daily, 6 weeks), the “Body and liver weights” value was “without significant changes in body and liver weights”; the “Lipid accumulation in liver tissue (H&E, oil red O)” value is “dramatically decreased lipid accumulation in liver tissue”. Besides, the “TPH1 Inhibition (% Inhibition at 1 µM)” value in assay [2] (1 µM) is given as 92%.
In turn, `N[C@@H](Cc1ccc(-c2csc3c(O[C@H](c4ccc(Cl)cc4-c4ccoc4)C(F)(F)F)ncnc23)cc1)C(=O)O` [Compound 18g] registered an inhibition at 1 µM in assay [2] of 12%.
Molecule `N[C@@H](Cc1ccc(Oc2ncnc3c(-c4cccc(O)c4)csc23)cc1)C(=O)O` [Compound 9b] came in with an inhibition at 100 µM in assay [2] (100 µM compound) of 82%.
With `Nc1ncnc2c(-c3ccc(C[C@H](N)C(=O)O)cc3)csc12` [Compound 15a], in assay [2], the “TPH1 inhibitory activity (in words)” value was “weak activity”. Moreover, testing at 100 µM in assay [2] (100 µM compound) gave an inhibition of 49%.
As for `Cc1ccn(-c2cc(Cl)ccc2[C@@H](Oc2nc(N)nc3c(-c4ccc(C[C@H](N)C(=O)O)cc4)csc23)C(F)(F)F)n1` [Compound 30], in assay [2], the midpoint of inhibition, the IC50, lay at 208 nM and the inhibition at 1 µM amounted to 91%.
Regarding `N[C@@H](Cc1ccc(-c2csc3c(OC(c4ccc(-c5ccccc5)cc4)C(F)(F)F)ncnc23)cc1)C(=O)O` (stereo partly shown) [Compound 18d], in assay [2], the “TPH1 inhibitory activity (in words)” value is recorded as “completely lost their activity” and the inhibition at 10 µM is 1.2%.
`N[C@@H](Cc1ccc(Oc2ncnc3c(Br)csc23)cc1)C(=O)O` [Compound 6]: the inhibition at 100 µM in assay [2] (100 µM compound) was over 60%.
As to `CCOC(=O)[C@@H](N)Cc1ccc(-c2csc3c(O[C@H](c4ccc(Cl)cc4-n4ccc(C)n4)C(F)(F)F)ncnc23)cc1` [Compound 20, ethyl (S)-2-amino-3-(4-(4-((R)-1-(4-chloro-2-(3-methyl-1H-pyrazol-1-yl)phenyl)-2,2,2-trifluoroethoxy)thieno[3,2-d]pyrimidin-7-yl)phenyl)propanoate], in assay [2] (1 µM), the “TPH1 Inhibition (% Inhibition at 1 µM)” value turned out to be 79%.
The molecule `N[C@@H](Cc1ccc(-c2csc3c(OC(c4ccccc4-c4ccccc4)C(F)(F)F)ncnc23)cc1)C(=O)O` (stereo partly shown) [Compound 18e] displayed an inhibition at 1 µM in assay [2] of 76%.
Take `C[C@@H](Nc1ncnc2c(-c3ccc(C[C@H](N)C(=O)O)cc3)csc12)c1ccc2ccccc2c1` [Compound 18b]: 1 µM produced 10% inhibition in assay [2].
In assay [2], `N[C@@H](Cc1ccc(-c2csc3c(O[C@H](c4ccc(Cl)cc4C4=CCCOC4)C(F)(F)F)ncnc23)cc1)C(=O)O` [Compound 18h] returned a half-inhibitory concentration (IC50) of 263 nM and an inhibition at 1 µM of 78%.
In the case of `N[C@@H](Cc1ccc(-c2csc3c(OC(c4ccc(Cl)cc4-c4ccccc4)C(F)(F)F)ncnc23)cc1)C(=O)O` (stereo partly shown) [Compound 18f], 1 µM produced 41% inhibition in assay [2].
In assay [2] (100 µM compound), `N[C@@H](Cc1ccc(Oc2ncnc3c(-c4cccc(OCc5ccccc5)c4)csc23)cc1)C(=O)O` [Compound 11b] displayed an inhibition at 100 µM of 94%. In addition, in assay [2] (100 µM compound, 100 µM), the “TPH1 Inhibition (% Inhibition at 100 µM)” value amounted to 92%.
In assay [2] (100 µM compound), `N[C@@H](Cc1ccc(Oc2ncnc3c(-c4ccc(O)cc4)csc23)cc1)C(=O)O` [Compound 9a] came in with an inhibition at 100 µM of 45%.
For `N[C@@H](Cc1ccc(-c2csc3c(NCc4ccc(-c5ccccc5)cc4)ncnc23)cc1)C(=O)O` [Compound 18a], in assay [2], testing at 1 µM gave an inhibition of 25%. Besides, in assay [2] (100 µM compound), the inhibition at 100 µM is 90%.
As for `CCOC(=O)[C@@H](N)Cc1ccc(-c2csc3c(O[C@H](c4ccc(Cl)cc4-n4ccc(C)n4)C(F)(F)F)ncnc23)cc1.Cl` [Compound 19, ethyl (S)-2-amino-3-(4-(4-((R)-1-(4-chloro-2-(3-methyl-1H-pyrazol-1-yl)phenyl)-2,2,2-trifluoroethoxy)thieno[3,2-d]pyrimidin-7-yl)phenyl)propanoate hydrochloride], in assay [1] (100 mg/kg ip daily for 11 days from start of HFD), the Body weight gain entry is listed as “attenuated body weight gain”. In assay [1] (100 mg/kg ip daily), the “Adipocyte size in eWAT and iWAT (histology)” value is reported as “decreased adipocyte size”; the “UCP1 content in iWAT (immunohistochemistry)” value is on record as “higher content of mitochondrial uncoupling protein 1 (UCP1)”. In addition, in assay [2], the IC50 stood at 994 nM and the “TPH1 Inhibition (% Inhibition at 1 µM)” value is recorded as 60%.
Turning to `N[C@@H](Cc1ccc(-c2csc3c(O)ncnc23)cc1)C(=O)O` [Compound 15b], the “TPH1 inhibitory activity (in words)” value in assay [2] is on record as “weak activity”. In assay [2] (100 µM compound), this molecule displayed an inhibition at 100 µM of 33%.
In the case of `Cl.N[C@@H](Cc1ccc(-c2csc3c(OC(c4ccccc4)C(F)(F)F)ncnc23)cc1)C(=O)O` (stereo partly shown) [Compound 18c], in assay [2], the “TPH1 inhibitory activity (in words)” value is reported as “completely lost their activity” and testing at 10 µM gave an inhibition of 2.5%.
Regarding `N[C@@H](Cc1ccc(Oc2ncnc3c(-c4ccc(OCc5ccccc5)cc4)csc23)cc1)C(=O)O` [Compound 11a], the inhibition at 100 µM in assay [2] (100 µM compound) was found to be 58%.
For `Nc1nc(OC(c2ccc(-c3cccc(F)c3)cc2)C(F)(F)F)cc(-c2ccc(C[C@H](N)C(=O)O)cc2)n1` (stereo partly drawn) [LP533401, 4-[2-amino-6-[2,2,2-trifluoro-1-(3’-fluoro[1,1’-biphenyl]-4-yl)ethoxy]-4-pyrimidinyl]-L-phenylalanine, reference compound], the “Protection against diet-induced obesity (body weight gain, lipogenesis in adipose tissue)” value in assay [3] is “protect against diet-induced obesity in vivo”.

Values taken from paper PMC9182086, “Identification of New Non-BBB Permeable Tryptophan Hydroxylase Inhibitors for Treating Obesity and Fatty Liver Disease” (Molecules, 2022).
